Measured values published in patent US20250382273A1 (INSTITUT NATIONAL DE LA SANTE ET DE LA RECHERCHE MEDICALE, priority 2022, published 2025).

Tested on: M. tuberculosis H37Rv_gfp
Type: cell-based, Mycobacterium tuberculosis
Details: in combination with pretomanid 20 ng·mL−1; 5 days at 37° C.; […]; read-out: EC50 H37Rv_gfp

| Compound | EC50 |
| --- | --- |
| O=C1[C@@H]2C3C=CC(C3)[C@@H]2C(=O)N1c1nc2ccc(Nc3cccc(C(F)(F)F)n3)cc2s1 [Example 97, 4-[6-[[6-(trifluoromethyl)-2-pyridyl]amino]-1,3-benzothiazol-2-yl]-4-azatricyclo[5.2.1.02,6]dec-8-ene-3,5-dione] | < 1 µM |
| O=C(Nc1nc2cc3c(cc2s1)OCCO3)[C@@H]1C2C=CC(C2)[C@@H]1C(=O)O (stereo partly drawn) [Example 10, 3-(6,7-dihydro-[1,4]dioxino[2,3-f][1,3]benzothiazol-2-ylcarbamoyl) bicyclo[2.2.1]hept-5-ene-2-carboxylic acid] | 10 to 20 µM |
| O=C(Nc1nc2ccc(Oc3ccnc(C(F)(F)F)c3)cc2s1)[C@@H]1C2C=CC(C2)[C@@H]1C(=O)O (stereo partly drawn) [Example 32, 3-[[6-[[2-(trifluoromethyl)-4-pyridyl]oxy]-1,3-benzothiazol-2-yl]carbamoyl]bicyclo[2.2.1]hept-5-ene-2-carboxylic acid] | < 1 µM |
| CC(C)(C)c1ccc2nc(NC(=O)[C@@H]3C4C=CC(C4)[C@@H]3C(=O)O)sc2c1 (stereo partly drawn) [Example 12, 3-[(6-tert-butyl-1,3-benzothiazol-2-yl)carbamoyl]bicyclo[2.2.1]hept-5-ene-2-carboxylic acid] | < 1 µM |
| Cc1ccc(-c2ccc3nc(NC(=O)[C@@H]4C5C=CC(C5)[C@@H]4C(=O)O)sc3c2)cc1 (stereo partly drawn) [Example 53, 3-[[6-(p-tolyl)-1,3-benzothiazol-2-yl]carbamoyl]bicyclo[2.2.1]hept-5-ene-2-carboxylic acid] | < 1 µM |
| O=C(Nc1nc2ccc(-c3ccoc3)cc2s1)[C@@H]1C2C=CC(C2)[C@@H]1C(=O)O (stereo partly drawn) [Example 69, 3-[[6-(3-furyl)-1,3-benzothiazol-2-yl]carbamoyl]bicyclo[2.2.1]hept-5-ene-2-carboxylic acid] | < 1 µM |
| O=C(Nc1nc2ccc(Cc3ccccc3)cc2s1)[C@@H]1C2C=CC(C2)[C@@H]1C(=O)O (stereo partly drawn) [Example 20, 3-[(6-benzyl-1,3-benzothiazol-2-yl)carbamoyl]bicyclo[2.2.1]hept-5-ene-2-carboxylic acid] | < 1 µM |
| COc1ccc(-c2ccc3nc(NC(=O)[C@@H]4C5C=CC(C5)[C@@H]4C(=O)O)sc3c2)cc1 (stereo partly drawn) [Example 54, 3-[[6-(4-methoxyphenyl)-1,3-benzothiazol-2-yl]carbamoyl]bicyclo[2.2.1]hept-5-ene-2-carboxylic acid] | < 1 µM |
| O=C(Nc1nc2ccc(-c3cncnc3)cc2s1)[C@@H]1C2C=CC(C2)[C@@H]1C(=O)O (stereo partly drawn) [Example 80, 3-[(6-pyrimidin-5-yl-1,3-benzothiazol-2-yl)carbamoyl]bicyclo[2.2.1]hept-5-ene-2-carboxylic acid] | 10 to 20 µM |
| Cc1ccnc(Oc2ccc3nc(NC(=O)[C@@H]4C5C=CC(C5)[C@@H]4C(=O)O)sc3c2)c1 (stereo partly drawn) [Example 29, 3-[[6-[(4-methyl-2-pyridyl)oxy]-1,3-benzothiazol-2-yl]carbamoyl]bicyclo[2.2.1]hept-5-ene-2-carboxylic acid] | < 1 µM |
| O=C1[C@@H]2[C@H](C(=O)N1c1nc3ccc(Oc4ncccc4C(F)(F)F)cc3s1)[C@@H]1C=C[C@H]2C1 [Example 26, (1R,2S,6R,7S)-4-[6-[[3-(trifluoromethyl)-2-pyridyl]oxy]-1,3-benzothiazol-2-yl]-4-azatricyclo[5.2.1.02,6]dec-8-ene-3,5-dione] | 1 to 5 µM |
| O=C1[C@@H]2[C@H](C(=O)N1c1nc3ccc(Oc4cccc(C(F)(F)F)n4)cc3s1)[C@@H]1C=C[C@H]2C1 [Example 34, (1R,2S,6R,7S)-4-[6-[[6-(trifluoromethyl)-2-pyridyl]oxy]-1,3-benzothiazol-2-yl]-4-azatricyclo[5.2.1.02,6]dec-8-ene-3,5-dione] | 1 to 5 µM |
| C#CCOc1ccc(-c2ccc3nc(N4C(=O)[C@@H]5[C@H](C4=O)[C@@H]4C=C[C@H]5C4)sc3c2)cc1 [Example 71, (1R,2S,6R,7S)-4-[6-(4-prop-2-ynoxyphenyl)-1,3-benzothiazol-2-yl]-4-azatricyclo[5.2.1.02,6]dec-8-ene-3,5-dione] | < 1 µM |
| Cc1ccnc(Nc2ccc3nc(NC(=O)[C@@H]4C5C=CC(C5)[C@@H]4C(=O)O)sc3c2)c1 (stereo partly drawn) [Example 84, 3-[[6-[(4-methyl-2-pyridyl)amino]-1,3-benzothiazol-2-yl]carbamoyl]bicyclo[2.2.1]hept-5-ene-2-carboxylic acid] | 1 to 5 µM |
| O=C(Nc1nc2ccc(Nc3ccc(F)cn3)cc2s1)[C@@H]1C2C=CC(C2)[C@@H]1C(=O)O (stereo partly drawn) [Example 86, 3-[[6-[(5-fluoro-2-pyridyl)amino]-1,3-benzothiazol-2-yl]carbamoyl]bicyclo[2.2.1]hept-5-ene-2-carboxylic acid] | < 1 µM |
| Cc1cccc2sc(NC(=O)[C@@H]3C4C=CC(C4)[C@@H]3C(=O)O)nc12 (stereo partly drawn) [Example 16, 3-[(4-methyl-1,3-benzothiazol-2-yl)carbamoyl]bicyclo[2.2.1]hept-5-ene-2-carboxylic acid] | < 1 µM |
| Cc1ccc2nc(N3C(=O)[C@@H]4[C@@H]5CC[C@@H](C5)[C@@H]4C3=O)sc2c1 [Example 4, (1S,2S,6R,7R)-4-(6-methyl-1,3-benzothiazol-2-yl)-4-azatricyclo[5.2.1.02,6]decane-3,5-dione] | 10 to 20 µM |
| COc1cc(Nc2ccc3nc(N4C(=O)[C@@H]5C6C=CC(C6)[C@@H]5C4=O)sc3c2)ccn1 [Example 92, 4-[6-[(2-methoxy-4-pyridyl)amino]-1,3-benzothiazol-2-yl]-4-azatricyclo[5.2.1.02,6]dec-8-ene-3,5-dione] | 1 to 5 µM |
| CCOc1ccc2nc(N3C(=O)[C@@H]4[C@H](C3=O)[C@@H]3C=C[C@H]4C3)sc2c1 [Example 8, (1R,2S,6R,7S)-4-(6-ethoxy-1,3-benzothiazol-2-yl)-4-azatricyclo[5.2.1.02,6]dec-8-ene-3,5-dione] | < 1 µM |
| O=C(Nc1nc2ccc(Oc3ccc(F)cc3)cc2s1)[C@@H]1C2C=CC(C2)[C@@H]1C(=O)O (stereo partly drawn) [Example 21, 3-[[6-(4-fluorophenoxy)-1,3-benzothiazol-2-yl]carbamoyl]bicyclo[2.2.1]hept-5-ene-2-carboxylic acid] | < 1 µM |
| O=C(Nc1nc2ccc(OC(F)(F)F)cc2s1)[C@@H]1C2C=CC(C2)[C@@H]1C(=O)O (stereo partly drawn) [Example 44, 3-[[6-(trifluoromethoxy)-1,3-benzothiazol-2-yl]carbamoyl]bicyclo[2.2.1]hept-5-ene-2-carboxylic acid] | < 1 µM |
| O=C(Nc1nc2ccc(Nc3cc(F)ccn3)cc2s1)[C@@H]1C2C=CC(C2)[C@@H]1C(=O)O (stereo partly drawn) [Example 85, 3-[[6-[(4-fluoro-2-pyridyl)amino]-1,3-benzothiazol-2-yl]carbamoyl]bicyclo[2.2.1]hept-5-ene-2-carboxylic acid] | < 1 µM |

Same assay, conditions: in combination with pretomanid, unit inferred; read-out: average EC50 H37Rv_gfp

| Compound | EC50 |
| --- | --- |
| O=C(Nc1nc2ccc(Oc3ccnc(C(F)(F)F)c3)cc2s1)[C@@H]1C2C=CC(C2)[C@@H]1C(=O)O (stereo partly drawn) [Example 32, 3-[[6-[[2-(trifluoromethyl)-4-pyridyl]oxy]-1,3-benzothiazol-2-yl]carbamoyl]bicyclo[2.2.1]hept-5-ene-2-carboxylic acid] | 0.32 µM |
| COc1ccc(-c2ccc3nc(NC(=O)[C@@H]4C5C=CC(C5)[C@@H]4C(=O)O)sc3c2)cc1 (stereo partly drawn) [Example 54, 3-[[6-(4-methoxyphenyl)-1,3-benzothiazol-2-yl]carbamoyl]bicyclo[2.2.1]hept-5-ene-2-carboxylic acid] | 0.11 µM |
| O=C(Nc1nc2ccc(Oc3ccc(F)cc3)cc2s1)[C@@H]1C2C=CC(C2)[C@@H]1C(=O)O (stereo partly drawn) [Example 21, 3-[[6-(4-fluorophenoxy)-1,3-benzothiazol-2-yl]carbamoyl]bicyclo[2.2.1]hept-5-ene-2-carboxylic acid] | 0.27 µM |

Same assay, conditions: read-out: EC50 H37Rv_gfp

| Compound | EC50 |
| --- | --- |
| O=C(Nc1nc2ccc(O)cc2s1)[C@@H]1C2C=CC(C2)[C@@H]1C(=O)O (stereo partly drawn) [Example 50, 3-[(6-hydroxy-1,3-benzothiazol-2-yl)carbamoyl]bicyclo[2.2.1]hept-5-ene-2-carboxylic acid] | 10 to 20 µM |
| O=C1[C@@H]2[C@H](C(=O)N1c1nc3ccc(Oc4cc(C(F)(F)F)ccn4)cc3s1)[C@@H]1C=C[C@H]2C1 [Example 28, (1R,2S,6R,7S)-4-[6-[[4-(trifluoromethyl)-2-pyridyl]oxy]-1,3-benzothiazol-2-yl]-4-azatricyclo[5.2.1.02,6]dec-8-ene-3,5-dione] | < 1 µM |
